Data taken from patent publication US9603980B2, “Layer-by-layer stereocomplexed polymers as drug depot carriers or coatings in medical devices” (Cardinal Health Switzerland 515 GmbH, priority 2008, dated 2017).

Tests used:
LDL = experiment: Lag phase for LDL peroxidation ex vivo, diene conjugates after addition of copper ions; design: species or system human; conditions: treatment for one month; compared with vitamins alone or the combination of probucol and vitamins; preliminary results
[1] = tested on: restenosis after coronary angioplasty; experiment: MVP randomized clinical trial, angiographic and clinical outcome; assay type: in vivo, human
Excerpt: In addition, the invention enables the skilled practitioner to use probucol in conjunction with other percutaneous coronary interventions such as stenting if it is deemed appropriate. The present invention concerns the IVUS substudy from the MVP restenosis trial. MVP was a double-blind placebo-controlled randomized clinical trial with four study groups. The protocol was approved by the Montreal Heart Institute institutional review board. The MVP study design, inclusion and exclusion criteria have been previously described (N Engl J Med 1997; 365-372). Briefly, patients referred for elective coronary angioplasty were evaluated at least 30 days prior to their scheduled procedure. Eligible patients were asked to provide written informed consent. Patients were eligible if they were scheduled to undergo standard balloon angioplasty on at least one native coronary artery and had at least one de novo target lesion with luminal narrowing of fifty percent or more by caliper measurements. Beginning thirty days prior to scheduled angioplasty, patients were randomly assigned to receive either probucol alone, multivitamins alone, the combination of probucol and multivitamins, or placebo. Probucol 500 mg or matched placebo was administered twice daily. The multivitamin complex, consisting of vitamin E 700 IU, vitamin C 500 mg and beta-carotene 30,000 IU, or matched placebo was also administered in one tablet twice daily. All patients received an extra dose of probucol 1000 mg and/or vitamin E 2000 IU and/or matched placebos twelve hours before angioplasty, according to randomization assignment. […] Balloon angioplasty was performed according to standard techniques. […] The sequence of contrast injections with the exact degree of angulation was recorded and used for every angiogram. Coronary arteriograms (pre-, post-procedure, and final follow-up) were analyzed together using the Coronary Measurement System (CMS), as previously reported. Patient follow-up included clinical evaluation, exercise treadmill testing, blood chemistry, pill count and drug level measurements, and dietary assessment and intervention. Patients were readmitted for follow-up coronary angiography at five to seven months. Patients in whom arteriography was performed for clinical reasons before the fifth month returned for repeat angiographic examination at five to seven months if no definite angiographic restenosis was present on at least one dilated site. During follow-up, patients with recurrence or exacerbation of anginal symptoms were treated with medical therapy or revascularization procedures (reangioplasty or Coronary Bypass Surgery) as clinically indicated. […]

[2] = tested on: tissue hyperplasia and vascular remodeling after coronary angioplasty; experiment: IVUS substudy of the MVP restenosis trial; assay type: in vivo, human; conditions: for Lumen area: Follow-up Post PTCA (change)
Excerpt: Serial intravascular ultrasound (IVUS) examinations have been performed in a consecutive series of patients involved in the MVP trial. By providing tomographic views of coronary arteries with high resolution, IVUS allows quantitative assessment of changes in arterial lumen and wall dimensions. We were therefore able in this study to determine the pathophysiology of coronary restenosis after balloon angioplasty in patients systematically undergoing follow-up IVUS examination and determine the effect of probucol on tissue hyperplasia and vascular remodeling after coronary angioplasty.
The present invention concerns the IVUS substudy from the MVP restenosis trial. MVP was a double-blind placebo-controlled randomized clinical trial with four study groups. The protocol was approved by the Montreal Heart Institute institutional review board. The MVP study design, inclusion and exclusion criteria have been previously described (N Engl J Med 1997; 365-372). Briefly, patients referred for elective coronary angioplasty were evaluated at least 30 days prior to their scheduled procedure. Eligible patients were asked to provide written informed consent. Patients were eligible if they were scheduled to undergo standard balloon angioplasty on at least one native coronary artery and had at least one de novo target lesion with luminal narrowing of fifty percent or more by caliper measurements.
Beginning thirty days prior to scheduled angioplasty, patients were randomly assigned to receive either probucol alone, multivitamins alone, the combination of probucol and multivitamins, or placebo. Probucol 500 mg or matched placebo was administered twice daily. […] The sequence of contrast injections with the exact degree of angulation was recorded and used for every angiogram. Coronary arteriograms (pre-, post-procedure, and final follow-up) were analyzed together using the Coronary Measurement System (CMS), as previously reported. […] Patients were readmitted for follow-up coronary angiography at five to seven months. […]

[3] = compared to placebo, probucol given alone

## CC(C)(Sc1cc(C(C)(C)C)c(O)c(C(C)(C)C)c1)Sc1cc(C(C)(C)C)c(O)c(C(C)(C)C)c1 [Probucol Alone, 4,4′-([1-methylethylidene)bis(thio)]bis-[2,6-bis(1,1-dimethylethyl)phenol]]
LDL
  protection against LDL oxidation: significantly greater protection
[1]; at 6 month, compared to placebo, probucol given alone
  reduction of the need for repeat angioplasty: fifty-eight
[1]; [3]
  reduction of angiographic lumen loss: sixty-eight
  reduction of restenosis rate per segment: forty-seven
[1]; patients given probucol alone
  patients in whom restenosis still occurred: over twenty
[2]; compliant patients only
  Lumen area: −0.15 ± 1.70 mm^2
[2]; per segment
  Lumen area: −0.15 ± 1.70 mm^2
[2]; probucol only compared with placebo
  increase in vessel enlargement: seven hundred-thirty
